In patent US20110086834A1, “ALKYNYL ALCOHOLS AS KINASE INHIBITORS” (AMGEN INC., priority 2008, published 2011):

The compounds below were run against T1, NIK (Homo sapiens, UniProt Q99558) (assay: homogenous time resolved fluorescence (HTRF) assay for NIK Ki measurement). Settings: truncated NIK (catalytic domain only), autophosphorylation; 10 nM enzyme; 20, 100, 200 or 500 μM ATP; room temperature, 2 hours; read-out: Ki activity in the homogenous time resolved fluorescence (HTRF) assay for NIK.
T1 construct: Both assays utilize a truncated form of NIK containing only the catalytic domain; made in house; host or cells: baculovirus expression system (insect cells implied)
T1 sequence (Q99558 400-655 limits assumed): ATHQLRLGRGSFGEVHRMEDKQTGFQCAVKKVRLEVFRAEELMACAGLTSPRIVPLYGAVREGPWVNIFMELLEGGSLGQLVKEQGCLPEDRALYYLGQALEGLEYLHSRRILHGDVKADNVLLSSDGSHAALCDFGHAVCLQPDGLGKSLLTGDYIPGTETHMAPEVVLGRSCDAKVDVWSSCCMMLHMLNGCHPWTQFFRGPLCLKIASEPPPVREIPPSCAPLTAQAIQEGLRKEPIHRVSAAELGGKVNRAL
Format: biochemical
Description: Two formats of biochemical assays are implemented: (1) chemiluminescent (CL) assay for NIK IC50 determination; (2) homogenous time resolved fluorescence (HTRF) assay for NIK Ki measurement. […] The NIK proteins are purified with baculovirus expression system and further biotinylated with N-hydroxysuccinamide biotin ester (Sigma). […] The reaction mixtures are then immobilized on a Streptavidin-coated plate (Pierce). […] For the HTRF assay, 10 nM of enzyme are incubated with compounds in the presence of 20, 100, 200, or 500 μM of ATP in a buffer with 20 mM of Hepes pH7.5, 20 mM of MgCl2, 0.2% of Tween 20 and 1 mM of DTT at room temperature for 2 hours.

Row | Structure (SMILES) | Ki [nM]
1 | CN(c1cc(C#CC(C)(O)c2nccs2)ccc1OC1CCOCC1)c1nc(N)ncc1Cl (stereo not drawn) [Example 165, 4-(3-((2-amino-5-chloropyrimidin-4-yl)(methyl)amino)-4-(tetrahydro-2H-pyran-4-yloxy)phenyl)-2-(thiazol-2-yl)but-3-yn-2-ol] | < 1000
2 | C[C@](O)(C#Cc1ccc2c(c1)N(c1nc(N)ncc1Cl)C[C@@]21CCOC1)c1nccs1 (stereo in doubt) [Example 199, (2S)-4-((3R*)-1′-(2-Amino-5-chloro-4-pyrimidinyl)-1′,2′,4,5-tetrahydrospiro[furan-3,3′-indol]-6′-yl)-2-(1,3-thiazol-2-yl)-3-butyn-2-ol] | 1000 to 30000
3 | Cn1c2c(c3cc(C#CC4(O)CCCC4)ccc31)-c1nc(N)ncc1CNC2=O [Example 245, 2-Amino-1′-((1-hydroxycyclopentyl)ethynyl)-8-methyl-5,8-dihydropyrimido[4′,5′:5,6]azepino[3,4-b]indol-7(6H)-one] | < 1000
4 | Nc1ncc(Cl)c(-c2cn(CC3CCOC3)c3ccc(C#CC4(O)CCCC4)cc23)n1 (stereo not drawn) [Example 134, 1-(2-(3-(2-amino-5-chloropyrimidin-4-yl)-1-((tetrahydrofuran-3-yl)methyl)-1H-indol-5-yl)ethynyl)cyclopentanol] | < 1000
5 | CC1(C)CN(c2nc(N)ncc2Cl)c2cc(C#C[C@](C)(O)c3nccs3)ccc21 (single isomer, unassigned) [Example 41] | 1000 to 30000
6 | CC(O)(C#Cc1ccc(OC2CCOCC2)c(Nc2nc(N)ncc2Cl)c1)c1nccs1 (stereo not drawn) [Example 152, 4-(3-(2-Amino-5-chloropyrimidin-4-ylamino)-4-(tetrahydro-2H-pyran-4-yloxy)phenyl)-2-(thiazol-2-yl)but-3-yn-2-ol] | < 1000
7 | CC(O)(C#Cc1cccc(Nc2nc(N)ncc2Cl)n1)c1nccs1 (stereo not drawn) [Example 147, 4-(6-(2-Amino-5-chloropyrimidin-4-ylamino)pyridin-2-yl)-2-(thiazol-2-yl)but-3-yn-2-ol] | 1000 to 30000
8 | Nc1ncc(OCCOCCN2CCOCC2)c(-c2c[nH]c3ccc(C#CC4(O)CCCC4)cc23)n1 [Example 231, 1-((3-(2-Amino-5-(2-(2-(4-morpholinyl)ethoxy)ethoxy)-4-pyrimidinyl)-1H-indol-5-yl)ethynyl)cyclopentanol] | < 1000

More lines, now with the values ahead:

Row | Ki [nM] | Structure (SMILES)
9 | < 1000 | COCCOc1cnc(N)nc1-c1c[nH]c2ccc(C#CC3(O)CCCC3)cc12 [Example 223, 1-((3-(2-Amino-5-(2-methoxyethoxy)-4-pyrimidinyl)-1H-indol-5-yl)ethynyl)cyclopentanol]
10 | < 1000 | Cc1cc([C@](C)(O)C#Cc2ccc3c(c2)N(c2nc(N)ncc2Cl)CC32CCOCC2)on1 (single isomer, unassigned) [Example 31]
11 | < 1000 | Nc1ncc(Cl)c(-c2cn(C[C@@H]3CCCO3)c3ccc(C#CC4(O)CCCC4)cc23)n1 [Example 136, 1-(2-(3-(2-amino-5-chloropyrimidin-4-yl)-1-(((S)-tetrahydrofuran-2-yl)methyl)-1H-indol-5-yl)ethynyl)cyclopentanol]
12 | < 1000 | CC(O)(C#Cc1ccc(O[C@@H]2CCOC2)c(Nc2nc(N)ncc2Cl)c1)c1nccs1 (stereo partly drawn) [Example 159]
13 | < 1000 | C[C@@](O)(C#Cc1ccc2ncc(-c3nc(N)ncc3Cl)n2c1)c1nccs1 [Example 296, (2R)-4-(3-(2-amino-5-chloro-4-pyrimidinyl)imidazo[1,2-a]pyridin-6-yl)-2-(1,3-thiazol-2-yl)-3-butyn-2-ol]
14 | < 1000 | Cn1cnc([C@H](O)C#Cc2ccc3c(c2)N(c2nc(N)ncc2Cl)CC3(C)C)c1 (single isomer, unassigned) [Example 47, (1R*)-3-(1-(2-amino-5-chloro-4-pyrimidinyl)-3,3-dimethyl-2,3-dihydro-1H-indol-6-yl)-1-(1-methyl-1H-imidazol-4-yl)-2-propyn-1-ol]
15 | < 1000 | Nc1ncc(Cl)c(-c2cn(CCOCCOCCO)c3ccc(C#CC4(O)CCCC4)cc23)n1 [Example 130]
